# Assay: Induction period of fat with anti-oxidant
# Type: physicochemical
# Details: calculated on the fat; induction period established at 100° C.
# Source text: Preferably the anti-oxidant is selected from the group consisting of natural and nature-identical anti-oxidants, citric acid, tartaric acid and precursors thereof. The most preferred anti-oxidant is α-tocopherol and mixtures of tocopherols, which are commercially available. Alpha-tocopherol is commonly present as a native anti-oxidant in vegetable fat. About 0.1 wt. % (calculated on the fat) of alpha-tocopherol is sufficient for increasing the induction period of the fat by a factor of 1.5 (effective concentration). The induction period is established at 100° C., using the method described in J. Am. Oil. Chem. Soc. Vol. 63, 6 (1986), 192-195.
smiles,measurement,value
Cc1c(C)c2c(c(C)c1O)CCC(C)(CCCC(C)CCCC(C)CCCC(C)C)O2 (stereo not drawn) [alpha-tocopherol],effective concentration (increasing the induction period of the fat by a factor of 1.5),About 0.1 wt. %
